Reference: patent publication US12496355B2, “Method for treating a cancer and/or cancer metastasis” (NANO TARGETING & THERAPY BIOPHARMA INC., priority 2022, dated 2025)
Entries after “also recorded” stand apart in the source; their conditions may differ.

Experiments:
[1] = system: tumor angiogenesis on chicken embryo chorioallantoic membrane; assay: Chorioallantoic membrane (CAM) tumor model for angiogenesis; type: in vivo; conditions: administered on day 12, observed on days 14 and 16
Procedure: To evaluate the effect of MSNs on tumor angiogenesis, chicken embryo chorioallantoic membrane (CAM) tumor model was used. The fertilized eggs were incubated in the incubator for 10 days, then a small window was opened in the eggshell and the cancer cells were implanted on the CAM membrane near the aorta. MSN or Doxorubicin (DOX) was administered on day 12 when the tumor was formed and the angiogenesis near the tumor was observed on days 14 and 16.

[2] = system: luciferase-expressing HCT-116 cells; assay: Orthotopic colorectal cancer metastasis model, cells injected into cecum wall; conditions: 40 mg/kg twice per week, 8 administrations
From the text: 2×10^6 luciferase-expressing HCT-116 cells were directly injected into the wall of the cecum with surgery to establish the orthotopic colorectal cancer metastasis model, this model spontaneously produces highly metastatic tumors in adjacent intestinal tissues, peritoneum, and distance metastasis (spleen, kidney, liver, and diaphragm). […] The tumor growth and metastasis were observed by the IVIS system once a week and body weight was observed over the study period. To assess overall survival, animals were monitored up to the point of spontaneous death or approaching moribund status.

Structure (SMILES)	blood vessels near the tumor (angiogenesis) [1]	primary tumor growth and metastases (IVIS bioluminescence) [2]
COc1cccc2c1C(=O)c1c(O)c3c(c(O)c1C2=O)C[C@@](O)(C(=O)CO)C[C@@H]3O[C@H]1C[C@H](N)[C@H](O)[C@H](C)O1 [DOX, Doxorubicin]	blood vessels exhibited disintegration and decreased density	–
CCc1c2c(nc3ccc(OC(=O)N4CCC(N5CCCCC5)CC4)cc13)-c1cc3c(c(=O)n1C2)COC(=O)[C@]3(O)CC [IRI, irinotecan]	–	slower tumor growth rate compared to the control group; also recorded: inefficient inhibition of tumor growth and metastases
